Laboratory results taken from patent US20240174622A1, “COMPOUND AND RADIOACTIVE LABELING COMPOUND” (NIHON MEDI-PHYSICS CO., LTD., priority 2021, published 2024).

Test system: LNCaP tumor
Assay: Evaluation of suppressing tumor growth by 225Ac-labeling compound
Assay type: in vivo, mouse
Details: 20 kBq, tail vein
Protocol: [^225Ac]Ac-PSMA-DA1 (20 kBq) or [^225Ac]Ac-PSMA-DB (20 kBq) obtained by the above method was dissolved in 5% ethanol-containing acetate buffer (158 mM, pH 6.5, 100 μL), and the solution was administered to LNCaP tumor-transplanted mice from the tail vein (n=6 or 5). As the control group, 100 μL of 5% ethanol-containing acetate buffer (158 mM, pH 6.5) was administered to LNCaP tumor-transplanted mice from the tail vein (n=4).
After administration of the ^225Ac-labeling compound, the tumor volume and body weight were measured 2 times per week. The tumor volumes on the day when administration of ^225Ac-labeling compound was started were 75.3±26.0, 80.6±20.8, and 91.1±15.9 mm^3 for the groups administered [^225Ac]Ac-PSMA-DA1, [^225Ac]Ac-PSMA-DB, and 5% ethanol-containing acetate buffer, respectively.

For `O=C([O-])CN1CCN(C(CCC(=O)NCCCC[C@H](NC(=O)N[C@@H](CCC(=O)O)C(=O)O)C(=O)O)C(=O)[O-])CCN(CC(=O)[O-])CCN(C(CCC(=O)Nc2ccccc2)C(=O)[O-])CC1.[225Ac+3]` (some centres unmarked) [[^225Ac]Ac-PSMA-DB, reference compound], the body weight reduction was “no sign of recovery” and the “tumor growth compared with the control group” value was “significantly suppressed”.
